The values that follow come from patent US20220235006A1, “PYRIDINE DERIVATIVES AS TMEM16A MODULATORS FOR USE IN THE TREATMENT OF RESPIRATORY CONDITIONS” (TMEM16A LIMITED, priority 2019, published 2022).

Data set [1] addresses T1, human TMEM16A (TMEM16Aabc variant) (Homo sapiens, UniProt Q5XXA6, DEL476-501).
T1 sequence (Q5XXA6 with tags, fused parts or gaps isoform Q5XXA6-5 DEL539-564): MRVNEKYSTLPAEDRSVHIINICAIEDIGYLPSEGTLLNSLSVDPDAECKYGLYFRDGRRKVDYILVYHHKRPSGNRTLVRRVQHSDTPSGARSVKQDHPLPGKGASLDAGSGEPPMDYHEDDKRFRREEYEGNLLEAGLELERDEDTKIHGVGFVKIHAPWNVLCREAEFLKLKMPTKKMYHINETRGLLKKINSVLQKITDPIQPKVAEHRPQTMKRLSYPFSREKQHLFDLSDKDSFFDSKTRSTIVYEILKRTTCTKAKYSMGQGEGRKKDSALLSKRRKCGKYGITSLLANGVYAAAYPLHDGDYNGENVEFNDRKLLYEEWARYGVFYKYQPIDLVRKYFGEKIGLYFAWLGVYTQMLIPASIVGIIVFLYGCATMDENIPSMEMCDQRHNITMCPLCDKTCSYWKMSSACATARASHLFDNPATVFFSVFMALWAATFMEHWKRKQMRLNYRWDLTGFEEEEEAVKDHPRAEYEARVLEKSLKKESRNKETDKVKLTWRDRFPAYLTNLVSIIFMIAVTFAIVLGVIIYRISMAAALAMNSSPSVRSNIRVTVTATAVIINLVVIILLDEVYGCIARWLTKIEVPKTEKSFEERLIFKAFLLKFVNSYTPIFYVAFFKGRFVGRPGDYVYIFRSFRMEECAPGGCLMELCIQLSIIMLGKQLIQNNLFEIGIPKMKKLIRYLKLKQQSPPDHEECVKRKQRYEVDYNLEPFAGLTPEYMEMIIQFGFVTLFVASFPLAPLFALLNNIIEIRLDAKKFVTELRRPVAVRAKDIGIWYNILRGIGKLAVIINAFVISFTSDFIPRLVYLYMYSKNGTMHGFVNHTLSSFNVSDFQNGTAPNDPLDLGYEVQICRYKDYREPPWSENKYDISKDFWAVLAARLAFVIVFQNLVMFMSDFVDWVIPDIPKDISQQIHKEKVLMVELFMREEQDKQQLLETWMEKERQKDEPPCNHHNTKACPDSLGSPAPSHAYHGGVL
The data set can be described thus: Automated whole-cell patch clamp (Qpatch) TMEM16A potentiator assay in recombinant FRT cells. The data set is classed as cell-based. Particulars: for activation at 3.33 µM: percentage increase of baseline TMEM16A current, minimum n = 2, read-out: % Potentiation @ 3.33 uM Avg; for EC50: minimum n = 2. How it is done: Automated Whole-Cell Patch Clamp Assay to Detect TMEM16A Activity in Recombinant Cells
Fisher rat thyroid (FRT) cells stably expressing human TMEM16A (TMEM16Aabc variant; Dr Luis Galietta, Insituto Giannina, Italy) were cultured in T-75 flasks in Hams F-12 media with Coon's modification (Sigma) supplemented with 10% (v/v) foetal bovine serum, penicillin-streptomycin (10,000 U/mL/10000 μg/mL), G-418 (750 μg/mL), L-glutamine (2 mM) and sodium bicarbonate solution (7.5% v/v). At ˜90% confluence cells were harvested for experiments by detachment with a 2:1 (v/v) mixture of Detachin (BMS Biotechnology) and 0.25% (w/v) trypsin-EDTA.
FRT-TMEM16A cells were whole-cell patch clamped using an automated planar patch clamp system (Qpatch, Sophion). Briefly, once high resistance (GOhm) seals were established between the cells and the planar recording array the patch was ruptured using suction pulses to establish the whole-cell recording configuration of the patch clamp technique. The assay employed the following solutions (all reagents Sigma): Intracellular solution (mM): N-methyl-D-glucamine 130, CaCl2 18.2, MgCl2 1, HEPES 10, EGTA 10, BAPTA 20, Mg-ATP 2, pH 7.25, 325 mOsm with sucrose.
Extracellular solution (mM): N-methyl-D-glucamine 130, CaCl2 2, MgCl2 1, HEPES 10, pH 7.3, 320 mOsm with sucrose.
The intracellular solution buffers intracellular calcium at levels required to give ˜20% activation of the maximal TMEM16A mediated current (E020 for calcium ions). Cells were voltage clamped at a holding potential of −70mV and a combined voltage step (to +70 mV)/ramp (−90 my to +90 mV) was applied at 0.05 Hz. After a period of current stabilisation test compounds, solubilised in 100% (v/v) DMSO and subsequently diluted into extracellular solution, were applied to generate a cumulative concentration response curve. Each concentration of test compound was incubated for 5 minutes before addition of the next concentration. After the final concentration was tested a supramaximal concentration of either a known active positive modulator or the TMEM16A inhibitor, CaCCinhA01 (Del La Fuente et al, 2008) was added to define the upper and lower limits of the assay.
Compound activity was quantified by measuring the increase in current upon compound addition and expressing this as a percentage increase of baseline TMEM16A current level.
Peak TMEM16A current at +70 mV was plotted as a function of time over the assay period. Baseline current (IBL) was measured after a period of stabilisation. The increase in current for each compound addition was determined by taking the peak current during the incubation period and subtracting the current from the previous recording period and then expressing this as a percentage of the baseline current (% potentiation). For test compound concentration 1 in FIG. 1 this is:
For each additional concentration tested the increase in current was determined by subtracting the current from the previous incubation period and normalising the baseline value—for test concentration 2 in FIG. 1 this is:
The values for each test concentration were plotted as a cumulative function of concentration eg. for test concentration two this would be the sum of the peak changes measured during concentration one plus concentration two.
(In general: Patch clamp records ionic current or voltage across a cell membrane.)

Data set [2] can be described thus: Log D (pH7.4 shake flask). In kind it is physicochemical. The following applies: pH 7.4; 1-octanol/phosphate buffer shake flask; read-out: mLogD (pH 7.4). How it is done:
Phosphate buffer (1 M) was diluted to 20 mM with deionised water and adjusted to pH 7.4 with phosphoric acid or sodium hydroxide. 1-octanol and phosphate buffer (20 mM) were saturated overnight by tumbling. The two phases were separated using a separation funnel. 5 μL of 5 mM compound cassette was added to 495 μL of octanol-saturated buffer and 495 μL buffer saturated octanol in a 96-well plate (top concentration 50 μM). Plate was shaken for 1 h and centrifuged at 25° C. for 5 min. 200 μL of each phase was transferred to a separate plate. The octanol layer was sampled first to avoid cross contamination. 5 μL of the solutions were transferred to 495 μL of quench solution* (max concentration 0.5 μM). In addition, 40 μL of buffer solution was added to 360 μL of quench solvent (max concentration 5 μM). Samples were analysed by LC-MS/MS. Benchmarking against a calibration curve for each compound and with reference to the control compounds sulpride, diclofenac, chlorpromazine and tamoxifen. *Quench solution was a 1:3:1 mixture (v/v/v) of Acetonitrile containing 0.1% formic acid and imipramine/labetalol, 200 nM:Acetonitrile:Water.

Regarding `CC1(NC(=O)c2cc(NC(=O)Cc3cc(O)c(C(C)(C)C)cc3F)ccn2)CC1` [Example 1, 4-[[2-(4-tert-Butyl-2-fluoro-5-hydroxy-phenyl)acetyl]amino]-N-(1-methylcyclopropyl)pyridine-2-carboxamide], in data set [1], the activation at 3.33 µM came to 248% and the EC50 (commonly the concentration at which the effect is half-maximal) stood at 0.038 µM. Also, the logD in data set [2] was > 4.2.

Take `CC(C)(C)c1cc(F)c(CC(=O)Nc2ccnc(C(=O)NC3(C(F)(F)F)CC3)c2)cc1O` [Example 1.7]: in data set [1], the activation at 3.33 µM was found to be 202% and the concentration for a half-maximal effect (EC50) amounted to 0.025 µM. Further, the logD in data set [2] is > 4.

On to `CC(C)(C#N)NC(=O)c1cc(NC(=O)Cc2cc(O)c(C(C)(C)C)cc2F)c(F)cn1` [Example 3, 4-[[2-(4-tert-Butyl-2-fluoro-5-hydroxy-phenyl)acetyl]amino]-N-(1-cyano-1-methyl-ethyl)-5-fluoro-pyridine-2-carboxamide], for which, in data set [1], the activation at 3.33 µM is 353% and the EC50 was 0.132 µM. Moreover, the logD in data set [2] was 3.9.

With `CC(C)(C)NC(=O)c1cc(NC(=O)Cc2cc(O)c(C3(C#N)CC3)cc2F)ccn1` [Example 2.4, N-tert-Butyl-4-[[2-[4-(1-cyanocyclopropyl)-2-fluoro-5-hydroxy-phenyl]acetyl]amino]pyridine-2-carboxamide], in data set [1], the activation at 3.33 µM turned out to be 356% and the EC50 was found to be 0.069 µM. For the same compound, the logD in data set [2] worked out at 3.7.

Regarding `O=C(Cc1cc(O)c(C2(CO)CC2)cc1F)Nc1ccnc(C(=O)NC2(C(F)(F)F)CC2)c1` [Example 2.16, 4-[[2-[2-Fluoro-5-hydroxy-4-[1-(hydroxymethyl)cyclopropyl]phenyl]acetyl]amino]-N-[1-(trifluoromethyl)cyclopropyl]pyridine-2-carboxamide], in data set [1], the activation at 3.33 µM stood at 227% and the EC50 is 0.076 µM.

Consider `CC(C)(C)NC(=O)c1cc(NC(=O)Cc2cc(O)c(C(C)(C)O)cc2F)ccn1` [Example 7, N-tert-Butyl-4-[[2-[2-fluoro-5-hydroxy-4-(1-hydroxy-1-methyl-ethyl)phenyl]acetyl]amino]pyridine-2-carboxamide], for which, in data set [1], the activation at 3.33 µM was 83.6% and the half-maximal effective concentration (EC50) was 0.068 µM.

For the compound `N#CC1(c2cc(F)c(CC(=O)Nc3ccnc(C(=O)NC4(C(F)(F)F)CC4)c3)cc2O)CCOCC1` [Example 2.9, 4-[[2-[4-(4-Cyanotetrahydropyran-4-yl)-2-fluoro-5-hydroxy-phenyl]acetyl]amino]-N-[1-(trifluoromethyl)cyclopropyl]pyridine-2-carboxamide], in data set [1], the activation at 3.33 µM came to 295% and the EC50 was 0.149 µM.

As to `CC(C)(C#N)NC(=O)c1cc(NC(=O)Cc2cc(O)c(C(C)(C)O)cc2F)ccn1` [Example 2.1, N-(1-Cyano-1-methyl-ethyl)-4-[[2-[2-fluoro-5-hydroxy-4-(1-hydroxy-1-methyl-ethyl)phenyl]acetyl]amino]pyridine-2-carboxamide], in data set [1], the activation at 3.33 µM amounted to 350% and the EC50 was 0.466 µM.

As for `CC(C)(C#N)NC(=O)c1cc(NC(=O)Cc2cc(O)c(C(C)(C)C)cc2F)ccn1` [Example 1.4], in data set [1], the activation at 3.33 µM stood at 200% and the concentration for a half-maximal effect (EC50) was found to be 0.037 µM. Also, the logD in data set [2] was > 4.1.

On to `O=C(Cc1cc(O)c(C2(CO)CCOCC2)cc1F)Nc1ccnc(C(=O)NC2(C(F)(F)F)CC2)c1` [Example 2.15, 4-[[2-[2-Fluoro-5-hydroxy-4-[4-(hydroxymethyl)tetrahydropyran-4-yl]phenyl]acetyl]amino]-N-[1-(trifluoromethyl)cyclopropyl]pyridine-2-carboxamide], for which, in data set [1], the activation at 3.33 µM was 413% and the 50% effective concentration (EC50) turned out to be 0.279 µM.

Consider `CC(C)(C#N)NC(=O)c1cc(NC(=O)Cc2cc(O)c(C(C)(C)C)cc2Cl)ccn1` [Example 10, 4-[[2-(4-tert-Butyl-2-chloro-5-hydroxy-phenyl)acetyl]amino]-N-(1-cyano-1-methyl-ethyl)pyridine-2-carboxamide], for which, in data set [1], the activation at 3.33 µM is 310% and the EC50 was determined as 0.052 µM. Also, the logD in data set [2] is > 4.

Regarding `CC(CO)c1cc(F)c(CC(=O)Nc2ccnc(C(=O)NC3(C)CCOCC3)c2)cc1O` (stereo not drawn) [Example 16.3, 4-[[2-[2-Fluoro-5-hydroxy-4-(2-hydroxy-1-methyl-ethyl)phenyl]acetyl]amino]-N-(4-methyltetrahydropyran-4-yl)pyridine-2-carboxamide], in data set [1], the activation at 3.33 µM is 140% and the EC50 turned out to be 0.407 µM.

For `O=C(Cc1cc(O)c(C2(C(F)(F)F)CCO2)cc1F)Nc1ccnc(C(=O)NC2(C(F)(F)F)CC2)c1` (stereo not drawn) [Example 2.10, 4-[[2-[2-Fluoro-5-hydroxy-4-[2-(trifluoromethyl)oxetan-2-yl]phenyl]acetyl]amino]-N-[1-(trifluoromethyl)cyclopropyl]pyridine-2-carboxamide], in data set [1], the activation at 3.33 µM is 434% and the concentration for a half-maximal effect (EC50) was 0.03 µM. Moreover, the logD in data set [2] worked out at 4.2.
